Where a name gives a salt, the structure may show the parent alone.
Tests used:
Notch1 = target: T1, Notch1 (Homo sapiens, UniProt P46531); test: Notch1 Reporter Assay (CSL-responsive luciferase, doxycycline-induced Notch-ICD in 293A cells); format: cell-based; details: 25 ng/mL Dox, 24 h, luciferase normalized to cell viability
T1 construct: pLV[Tet]-Puro-TRE3G>Notch1-ICD; expressed in transfected cells; host or cells: 293A cells
Method: 293A cells expressing 1) pCMV-Tet-On 3G, 2) pLV[Tet]-Puro-TRE3G>Notch1-ICD, 3) pLV[Tet]-Puro-TRE3G>Notch2-ICD, 4) pLV[Tet]-Puro-TRE3G>Notch3-ICD, and 5) pCSL-RElement-Luc were used. When Doxycycline is added, the Tet-ON gene activates expression of hNotch1ICD, which together with endogenous NTC components binds to CSL responsive elements (pCSL-RElement-Luc) and expresses luciferase. 1×10^4 cells are plated in 100 μL (96-well format). 24 h later, compounds (10 mM stock in DMSO) are diluted in DMSO to 200×, then added (5 ul into 1 mL) to cell culture media containing 50 ng/mL Dox. This is then added 1:1 to cells. Final DMSO=0.25%, Dox=25 ng/mL. After 24 h, media is discarded, and cells are lysed in passive lysis buffer (Promega). Cells are rocked at room temperature for 15 min and then lysate is divided for luciferase assay (Luciferase Assay System, Promega) and cell viability (CellTiter Glo 2.0, Promega). Raw luciferase is normalized to cell viability, and then scaled to DMSO wells. Results are analyzed and IC50's are determined in GraphPad by nonlinear regression curve fitting (4 parameter) of dose response curves.

[1] = test system: OE33 Esophageal Adenocarcinoma cell line; test: OE33 Colony Formation Assay; format: cell-based; details: Homo sapiens, 200 cells/well, compound every 48 hours for 7 days, CellTiter-Glo
Method: OE33 Colony Formation Assay:
The OE33 Esophageal Adenocarcinoma cell line was cultured and plated into 96-well tissue culture plates under sparse conditions (200 cells/well). Test compounds were serially diluted in DMSO and then into culture media (final DMSO concentration=0.1%). Compound/media was then added to cells every 48 hours for a total of 7 days. Clonogenic growth was assessed using the CellTiter-Glo reagent, according to manufacturer (Promega) specifications. Percent inhibition was calculated as the percent of luminescence normalized to control (0.1% DMSO) wells. Nonlinear regression curve fitting was performed using GraphPad Prism software to determine EC50's.

T1 sequence (P46531 1754-2555 limits assumed): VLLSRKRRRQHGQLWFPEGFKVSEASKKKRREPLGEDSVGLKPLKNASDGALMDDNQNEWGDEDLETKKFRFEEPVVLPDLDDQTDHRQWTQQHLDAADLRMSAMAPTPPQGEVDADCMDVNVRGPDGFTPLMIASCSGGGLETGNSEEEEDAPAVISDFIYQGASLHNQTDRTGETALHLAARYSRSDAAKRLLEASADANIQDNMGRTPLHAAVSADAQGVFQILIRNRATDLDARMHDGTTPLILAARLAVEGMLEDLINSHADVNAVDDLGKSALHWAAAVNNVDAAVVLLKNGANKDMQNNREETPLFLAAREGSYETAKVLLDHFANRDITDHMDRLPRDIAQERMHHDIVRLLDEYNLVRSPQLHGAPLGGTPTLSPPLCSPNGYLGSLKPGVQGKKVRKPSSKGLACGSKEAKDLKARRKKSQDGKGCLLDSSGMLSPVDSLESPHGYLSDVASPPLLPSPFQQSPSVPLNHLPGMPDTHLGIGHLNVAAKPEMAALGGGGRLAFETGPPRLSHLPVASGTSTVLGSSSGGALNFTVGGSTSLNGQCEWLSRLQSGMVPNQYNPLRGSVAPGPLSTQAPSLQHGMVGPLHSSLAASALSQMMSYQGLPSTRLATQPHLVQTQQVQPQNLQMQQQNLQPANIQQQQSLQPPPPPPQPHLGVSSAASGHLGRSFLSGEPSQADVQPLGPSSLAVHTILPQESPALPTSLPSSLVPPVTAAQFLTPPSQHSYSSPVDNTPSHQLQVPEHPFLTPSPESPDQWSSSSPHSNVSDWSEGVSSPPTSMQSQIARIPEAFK

| Compound | IC50 (Notch1) | EC50 [1] |
| --- | --- | --- |
| COc1cc(-c2cc(C(F)(F)F)cc3c2n(C)c(=O)n3CC(=O)Nc2ccc(Cl)cc2)cc(F)c1OCc1nnc[nH]1 [SSTN-489, 2-(4-(4-((4H-1,2,4-triazol-3-yl)methoxy)-3-fluoro-5-methoxyphenyl)-3-methyl-2-oxo-6-(trifluoromethyl)-2,3-dihydro-1H-benzo[d]imidazol-1-yl)-N-(4-chlorophenyl)acetamide hydrochloride] | 7.9 µM | 2.1 µM |
| COc1cc(-c2cc(C(F)(F)F)cc3c2n(C)c(=O)n3CC(=O)Nc2cccc(Cl)c2)cc(F)c1OCc1nnc[nH]1 [SSTN-490, 2-(4-(4-((4H-1,2,4-triazol-3-yl)methoxy)-3-fluoro-5-methoxyphenyl)-3-methyl-2-oxo-6-(trifluoromethyl)-2,3-dihydro-1H-benzo[d]imidazol-1-yl)-N-(3-chlorophenyl)acetamide hydrochloride] | 5.5 µM | 1.7 µM |
| COc1cc(-c2cc(C(F)(F)F)cc3c2n(C)c(=O)n3CC(=O)Nc2ccccc2Cl)cc(F)c1OCc1nnc[nH]1 [SSTN-491, 2-(4-(4-((4H-1,2,4-triazol-3-yl)methoxy)-3-fluoro-5-methoxyphenyl)-3-methyl-2-oxo-6-(trifluoromethyl)-2,3-dihydro-1H-benzo[d]imidazol-1-yl)-N-(2-chlorophenyl)acetamide hydrochloride] | 11.1 µM | 4.6 µM |
| COc1cccc(NC(=O)Cn2c(=O)n(C)c3c(-c4cc(F)c(OCc5nnc[nH]5)c(OC)c4)cc(C(F)(F)F)cc32)c1 [SSTN-492, 2-(4-(4-((4H-1,2,4-triazol-3-yl)methoxy)-3-fluoro-5-methoxyphenyl)-3-methyl-2-oxo-6-(trifluoromethyl)-2,3-dihydro-1H-benzo[d]imidazol-1-yl)-N-(3-methoxyphenyl)acetamide hydrochloride] | 6.3 µM | 6.6 µM |
| COc1ccccc1NC(=O)Cn1c(=O)n(C)c2c(-c3cc(F)c(OCc4nnc[nH]4)c(OC)c3)cc(C(F)(F)F)cc21 [SSTN-493, 2-(4-(4-((4H-1,2,4-triazol-3-yl)methoxy)-3-fluoro-5-methoxyphenyl)-3-methyl-2-oxo-6-(trifluoromethyl)-2,3-dihydro-1H-benzo[d]imidazol-1-yl)-N-(2-methoxyphenyl)acetamide hydrochloride] | 8.5 µM | 2.4 µM |
| COc1cc(-c2cc(C(F)(F)F)cc3c2n(C)c(=O)n3CC(=O)Nc2cccc(S(C)(=O)=O)c2)cc(F)c1OCc1nnc[nH]1 [SSTN-501, 2-(4-(4-((4H-1,2,4-triazol-3-yl)methoxy)-3-fluoro-5-methoxyphenyl)-3-methyl-2-oxo-6-(trifluoromethyl)-2,3-dihydro-1H-benzo[d]imidazol-1-yl)-N-(3-(methylsulfonyl)phenyl)acetamide hydrochloride] | 13 µM | – |
| COc1cc(-c2cc(C(F)(F)F)cc3c2n(C)c(=O)n3CC(=O)Nc2ccn(C)n2)cc(F)c1OCc1nnc[nH]1 [SSTN-509, 2-(4-(4-((4H-1,2,4-triazol-3-yl)methoxy)-3-fluoro-5-methoxyphenyl)-3-methyl-2-oxo-6-(trifluoromethyl)-2,3-dihydro-1H-benzo[d]imidazol-1-yl)-N-(1-methyl-1H-pyrazol-3-yl)acetamide hydrochloride] | 16.1 µM | – |
| COc1cc(-c2cc(C(F)(F)F)cc3c2n(C)c(=O)n3CC(=O)N2CCN(C)CC2)cc(F)c1OCc1nnc[nH]1 [SSTN-544, 4-(4-((4H-1,2,4-triazol-3-yl)methoxy)-3-fluoro-5-methoxyphenyl)-3-methyl-1-(2-(4-methylpiperazin-1-yl)-2-oxoethyl)-6-(trifluoromethyl)-1,3-dihydro-2H-benzo[d]imidazol-2-one] | 51.1 µM | – |
| COc1cc(-c2cc(C(F)(F)F)cc3c2n(C)c(=O)n3CC(=O)Nc2cccc(C#N)c2)cc(F)c1OCc1nnc[nH]1 [SSTN-545, 2-(4-(4-((4H-1,2,4-triazol-3-yl)methoxy)-3-fluoro-5-methoxyphenyl)-3-methyl-2-oxo-6-(trifluoromethyl)-2,3-dihydro-1H-benzo[d]imidazol-1-yl)-N-(3-cyanophenyl)acetamide] | 5.8 µM | – |
| COc1cc(-c2cc(C(F)(F)F)cc3c2n(C)c(=O)n3CC(=O)Nc2cccc(CN3CCOCC3)c2)cc(F)c1OCc1nnc[nH]1 [SSTN-575, 2-(4-(4-((4H-1,2,4-triazol-3-yl)methoxy)-3-fluoro-5-methoxyphenyl)-3-methyl-2-oxo-6-(trifluoromethyl)-2,3-dihydro-1H-benzo[d]imidazol-1-yl)-N-(3-(morpholinomethyl)phenyl)acetamide] | 12.5 µM | – |
| Cn1c(=O)n(CC(=O)N(Cc2nnc[nH]2)c2ccc(F)cc2)c2cc(C(F)(F)F)cc(-c3ccc(OCc4nnc[nH]4)c(F)c3)c21 [SSTN-592, 2-(4-(4-((4H-1,2,4-triazol-3-yl)methoxy)-3-fluorophenyl)-3-methyl-2-oxo-6-(trifluoromethyl)-2,3-dihydro-1H-benzo[d]imidazol-1-yl)-N-((4H-1,2,4-triazol-3-yl)methyl)-N-(4-fluorophenyl)acetamide] | 14.8 µM | – |
| Cn1c(=O)n(CC(=O)N(Cc2nnc[nH]2)c2ccc(F)cc2)c2cc(C(F)(F)F)cc(-c3cc(Cl)c(OCc4nnc[nH]4)c(Cl)c3)c21 [SSTN-594, 2-(4-(4-((4H-1,2,4-triazol-3-yl)methoxy)-3,5-dichlorophenyl)-3-methyl-2-oxo-6-(trifluoromethyl)-2,3-dihydro-1H-benzo[d]imidazol-1-yl)-N-((4H-1,2,4-triazol-3-yl)methyl)-N-(4-fluorophenyl)acetamide] | 4.5 µM | – |
| Cn1c(=O)n(CC(=O)Nc2ccc(F)cc2)c2cc(C(F)(F)F)cc(-c3ccc(OCc4nnc[nH]4)c(F)c3)c21 [SSTN-597, 2-(4-(4-((4H-1,2,4-triazol-3-yl)methoxy)-3-fluorophenyl)-3-methyl-2-oxo-6-(trifluoromethyl)-2,3-dihydro-1H-benzo[d]imidazol-1-yl)-N-(4-fluorophenyl)acetamide] | 8.1 µM | – |
| Cn1c(=O)n(CC(=O)Nc2ccc(F)cc2)c2cc(C(F)(F)F)cc(-c3cc(Cl)c(OCc4nnc[nH]4)c(Cl)c3)c21 [SSTN-599, 2-(4-(4-((4H-1,2,4-triazol-3-yl)methoxy)-3,5-dichlorophenyl)-3-methyl-2-oxo-6-(trifluoromethyl)-2,3-dihydro-1H-benzo[d]imidazol-1-yl)-N-(4-fluorophenyl)acetamide] | 13.9 µM | – |
| COc1cc(-c2cc(C)cc3c2n(C)c(=O)n3CC(=O)Nc2ccc(F)cc2)cc(F)c1OCc1nnc[nH]1 [SSTN-606, 2-(4-(4-((4H-1,2,4-triazol-3-yl)methoxy)-3-fluoro-5-methoxyphenyl)-3,6-dimethyl-2-oxo-2,3-dihydro-1H-benzo[d]imidazol-1-yl)-N-(4-fluorophenyl)acetamide hydrochloride salt] | 15.3 µM | – |
| COc1cncc(NC(=O)Cn2c(=O)n(C)c3c(-c4cc(F)c(OCc5nnc[nH]5)c(OC)c4)cc(C(F)(F)F)cc32)c1 [SSTN-611, 2-(4-(4-((4H-1,2,4-triazol-3-yl)methoxy)-3-fluoro-5-methoxyphenyl)-3-methyl-2-oxo-6-(trifluoromethyl)-2,3-dihydro-1H-benzo[d]imidazol-1-yl)-N-(5-methoxypyridin-3-yl)acetamide] | 20.9 µM | – |
| COc1ccc(NC(=O)Cn2c(=O)n(C)c3c(-c4cc(F)c(OCc5nnc[nH]5)c(OC)c4)cc(C(F)(F)F)cc32)cn1 [SSTN-613, 2-(4-(4-((4H-1,2,4-triazol-3-yl)methoxy)-3-fluoro-5-methoxyphenyl)-3-methyl-2-oxo-6-(trifluoromethyl)-2,3-dihydro-1H-benzo[d]imidazol-1-yl)-N-(6-methoxypyridin-3-yl)acetamide] | 9.2 µM | – |
| COc1cc(-c2cc(C(F)(F)F)cc3c2n(C)c(=O)n3CC(=O)Nc2cncc(C(F)(F)F)c2)cc(F)c1OCc1nnc[nH]1 [SSTN-614, 2-(4-(4-((4H-1,2,4-triazol-3-yl)methoxy)-3-fluoro-5-methoxyphenyl)-3-methyl-2-oxo-6-(trifluoromethyl)-2,3-dihydro-1H-benzo[d]imidazol-1-yl)-N-(5-(trifluoromethyl)pyridin-3-yl)acetamide] | 3.4 µM | – |
| COc1cc(-c2cc(F)cc3c2n(C)c(=O)n3CC(=O)N(C)c2ccc(Cl)cc2)cc(F)c1OCc1nc[nH]n1 [compound 384, 2-(4-(4-((1H-1,2,4-triazol-3-yl)methoxy)-3-fluoro-5-methoxyphenyl)-6-fluoro-3-methyl-2-oxo-2,3-dihydro-1H-benzo[d]imidazol-1-yl)-N-(4-chlorophenyl)-N-methylacetamide hydrochloride] | 14.2 µM | – |
| COc1cc(-c2cc(F)cc3c2n(C)c(=O)n3CC(=O)N(C)c2ccc(F)cc2)cc(F)c1OCc1nnc[nH]1 [compound 425, 2-(4-(4-((4H-1,2,4-triazol-3-yl)methoxy)-3-fluoro-5-methoxyphenyl)-6-fluoro-3-methyl-2-oxo-2,3-dihydro-1H-benzo[d]imidazol-1-yl)-N-(4-fluorophenyl)-N-methylacetamide hydrochloride] | 33.5 µM | – |
